The source of these data is US20230146395A1, “Substituted Pyrimidines and Uses Thereof” (Verge Analytics, Inc., priority 2020, published 2023).

The term IC50 denotes the point on the concentration scale where inhibition reaches its midpoint.

Where a name gives a salt, the structure may show the parent alone.

T1 sequence (Q9Y2I7 whole entry): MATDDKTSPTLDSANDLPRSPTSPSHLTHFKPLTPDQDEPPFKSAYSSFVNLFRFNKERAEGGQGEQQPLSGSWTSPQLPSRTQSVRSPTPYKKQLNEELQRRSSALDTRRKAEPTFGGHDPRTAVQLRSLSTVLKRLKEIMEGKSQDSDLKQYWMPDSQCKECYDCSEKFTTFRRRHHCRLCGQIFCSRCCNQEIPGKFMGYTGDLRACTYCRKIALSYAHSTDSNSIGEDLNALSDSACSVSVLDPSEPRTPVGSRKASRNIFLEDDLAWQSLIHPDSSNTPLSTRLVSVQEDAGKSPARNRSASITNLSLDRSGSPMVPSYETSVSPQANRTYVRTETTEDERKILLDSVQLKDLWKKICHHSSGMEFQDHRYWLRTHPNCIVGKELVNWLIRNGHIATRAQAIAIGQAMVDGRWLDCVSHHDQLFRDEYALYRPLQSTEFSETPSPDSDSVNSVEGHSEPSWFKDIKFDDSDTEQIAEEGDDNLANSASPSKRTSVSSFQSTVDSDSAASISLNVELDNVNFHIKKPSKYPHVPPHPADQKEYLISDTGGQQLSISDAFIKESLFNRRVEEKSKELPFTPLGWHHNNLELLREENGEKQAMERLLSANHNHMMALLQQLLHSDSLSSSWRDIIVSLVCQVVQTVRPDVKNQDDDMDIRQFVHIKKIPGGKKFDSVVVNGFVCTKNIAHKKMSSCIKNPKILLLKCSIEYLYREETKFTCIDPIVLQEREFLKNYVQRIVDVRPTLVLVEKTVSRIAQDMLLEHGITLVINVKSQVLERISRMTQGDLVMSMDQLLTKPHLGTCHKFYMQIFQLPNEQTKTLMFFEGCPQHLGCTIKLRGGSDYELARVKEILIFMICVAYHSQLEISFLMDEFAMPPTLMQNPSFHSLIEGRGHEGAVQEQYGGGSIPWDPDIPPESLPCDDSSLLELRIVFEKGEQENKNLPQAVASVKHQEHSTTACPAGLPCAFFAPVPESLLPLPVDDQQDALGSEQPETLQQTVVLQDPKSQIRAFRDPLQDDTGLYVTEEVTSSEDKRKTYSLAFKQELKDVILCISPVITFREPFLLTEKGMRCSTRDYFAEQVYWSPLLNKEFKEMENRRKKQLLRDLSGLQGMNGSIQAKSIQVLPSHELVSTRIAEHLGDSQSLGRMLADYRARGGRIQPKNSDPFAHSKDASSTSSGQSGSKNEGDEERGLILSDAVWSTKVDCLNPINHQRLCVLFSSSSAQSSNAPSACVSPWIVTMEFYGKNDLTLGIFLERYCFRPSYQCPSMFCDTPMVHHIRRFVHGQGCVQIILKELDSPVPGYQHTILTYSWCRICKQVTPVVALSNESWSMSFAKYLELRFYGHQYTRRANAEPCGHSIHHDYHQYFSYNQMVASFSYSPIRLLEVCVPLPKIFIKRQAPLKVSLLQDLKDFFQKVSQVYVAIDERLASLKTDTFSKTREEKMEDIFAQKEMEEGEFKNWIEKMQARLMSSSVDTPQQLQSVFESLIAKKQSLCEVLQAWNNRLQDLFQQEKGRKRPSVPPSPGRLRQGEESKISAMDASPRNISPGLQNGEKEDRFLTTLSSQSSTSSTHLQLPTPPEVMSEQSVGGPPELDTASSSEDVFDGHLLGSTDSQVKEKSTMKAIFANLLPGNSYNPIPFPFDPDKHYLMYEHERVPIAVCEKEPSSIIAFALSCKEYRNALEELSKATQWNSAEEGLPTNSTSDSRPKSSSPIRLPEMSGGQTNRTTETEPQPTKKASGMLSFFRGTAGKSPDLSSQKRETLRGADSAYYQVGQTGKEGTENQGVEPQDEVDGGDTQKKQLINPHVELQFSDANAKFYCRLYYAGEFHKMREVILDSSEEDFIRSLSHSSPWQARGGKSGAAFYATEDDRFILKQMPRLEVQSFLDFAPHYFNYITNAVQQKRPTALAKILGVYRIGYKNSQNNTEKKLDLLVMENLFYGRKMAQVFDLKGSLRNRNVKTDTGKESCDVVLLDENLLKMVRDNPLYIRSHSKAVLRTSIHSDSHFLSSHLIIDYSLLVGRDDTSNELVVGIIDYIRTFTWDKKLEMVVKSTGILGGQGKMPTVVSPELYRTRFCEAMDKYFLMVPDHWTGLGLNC

This test has as its target T1, Full length human recombinant PIKFYVE (Homo sapiens, UniProt Q9Y2I7).
T1 construct: Full length human recombinant PIKFYVE; purchased Carna Biosciences (Kobe, Japan); host or cells: baculovirus expression system
The experiment in a line: Inhibition of PIKfyve (microfluidic electrophoresis kinase assay, PI3P/PS substrate). The class given is biochemical. The following applies: 12 concentrations. The protocol:
Full length human recombinant PIKFYVE expressed in baculovirus expression system as N-terminal GST-fusion protein (265 kDa) was obtained from Carna Biosciences (Kobe, Japan). The kinase substrate was prepared by mixing and sonicating fluorescently-labeled phosphatidylinositol 3-phosphate (PI3P) with phospho-L-serine (PS) at a 1:10 ratio in 50 mM HEPES buffer pH 7.5.
The kinase reactions were assembled in 384-well plates (Greiner) in a total volume of […] as follows. Kinase protein was pre-diluted in an assay buffer comprising 25 mM HEPES, pH 7.5, 1 mM DTT, 2.5 mM MgCl2, and 2.5 mM MnCl2, and 0.005% Triton X-100, and dispensed into a 384-well plate (10 μL per well). Test compounds were serially pre-diluted in DMSO and added to the protein samples by acoustic dispensing (Labcyte Echo). The concentration of DMSO was equalized to 1% in all samples. All test compounds were tested at 12 concentrations. Apilimod was used as a reference compound and was tested in identical manner in each assay plate. Control samples (0%-inhibition, in the absence of inhibitor, DMSO only) and 100%-inhibition (in the absence of enzyme) were assembled in replicates of four and were used to calculate %-inhibition in the presence of compounds. The reactions were initiated by addition of 10 μL of 2×PI3P/PS substrate supplemented with ATP. The final concentration of enzyme was 2 nM, the final concentration of ATP was […], and the final concentration of PI3P/PS substrate was 1 μM (PI3P). The kinase reactions were allowed to proceed for 3 h at room temperature. Following incubation, the reactions were quenched by addition of […] of termination buffer (100 mM HEPES, pH 7.5, 0.01% Triton X-100, 20 mM EDTA). Terminated plates were analyzed on a microfluidic electrophoresis instrument (Caliper LabChip® 3000, Caliper Life Sciences/Perkin Elmer). The change in the relative fluorescence intensity of the PI(3)P substrate and PI(3,5)P product peaks was measured. The activity in each test sample was determined as the product to sum ratio (PSR): P/(S+P), where P is the peak height of the product, and S is the peak height of the substrate. Percent inhibition (Pinh) was determined using the following equation:
Pinh=(PSR0% inh−PSRcompound)/(PSR0% inh−PSR100% inh)*100
in which PSRcompound is the product/sum ratio in the presence of compound, PSR0% inh is the product/sum ratio in the absence of compound, and the PSR100% inh is the product/sum ratio in the absence of the enzyme.
On to `Cc1cccc(-c2cc(Nc3nc(N4CCOCC4)c4oc(C5CCN(C)C5)cc4n3)[nH]n2)c1` (stereo not shown) [Compound 39, 6-(1-methylpyrrolidin-3-yl)-4-morpholino-N-(3-(m-tolyl)-1H-pyrazol-5-yl)furo[3,2-d]pyrimidin-2-amine hydrochloride], for which the IC50 was 2560 nM. Under `CN(C)CCCNC(=O)c1cc2nc(-n3cc(-c4ccccc4)cn3)nc(N3CCOCC3)c2o1` [Compound 168, N-(3-(dimethylamino)propyl)-4-morpholino-2-(4-phenyl-1H-pyrazol-1-yl)furo[3,2-d]pyrimidine-6-carboxamide] stands 62.1 nM; under `CN1CCCC(c2cc3nc(Nc4cc(-c5ccccc5)n[nH]4)nc(N4CCOCC4)c3o2)C1` (stereo not shown) [Compound 35, 6-(1-methylpiperidin-3-yl)-4-morpholino-N-(3-phenyl-1H-pyrazol-5-yl)furo[3,2-d]pyrimidin-2-amine hydrochloride], 205 nM; under `c1ccc(-c2cc(Nc3nc(N4CCOCC4)c4oc(-c5ccncc5)cc4n3)on2)cc1` [Compound 44, 4-morpholino-N-(3-phenylisoxazol-5-yl)-6-(pyridin-4-yl)furo[3,2-d]pyrimidin-2-amine], 2 nM. In the case of `c1ccc(Cc2cc(Nc3nc(N4CCOCC4)c4oc(-c5ccncc5)cc4n3)[nH]n2)cc1` [Compound 73, N-(5-benzyl-1H-pyrazol-3-yl)-4-morpholino-6-(pyridin-4-yl)furo[3,2-d]pyrimidin-2-amine, hydrogen chloride], the concentration for half-maximal inhibition (IC50) was found to be 141 nM. For `[2H]C([2H])([2H])c1cccc(-c2cnn(-c3nc(N4CCOCC4)c4oc(-c5ccn(C)n5)cc4n3)c2)c1` [Compound 215, 6-(1-methylpyrazol-3-yl)-4-morpholino-2-[4-[3-(trideuteriomethyl)phenyl]pyrazol-1-yl]furo[3,2-d]pyrimidine] the value was 0.2 nM. On to `c1cc(-c2cc3nc(Nc4cc(C5CCCC5)n[nH]4)nc(N4CCOCC4)c3o2)ccn1` [Compound 74, N-(5-cyclopentyl-1H-pyrazol-3-yl)-4-morpholino-6-(pyridin-4-yl)furo[3,2-d]pyrimidin-2-amine, hydrogen chloride], for which the half-maximal inhibitory concentration (IC50) came to 224 nM. With `O=C(c1cc2nc(-n3cc(-c4ccccc4)cn3)nc(N3CCOCC3)c2o1)N1CCC1` [Compound 67, azetidin-1-yl(4-morpholino-2-(4-phenyl-1H-pyrazol-1-yl)furo[3,2-d]pyrimidin-6-yl)methanone], the half-inhibitory concentration (IC50) came out at 928 nM.

In the case of `Cc1cc(-c2cc3nc(-n4cc(-c5ccccc5)cn4)nc(N4CCOCC4)c3o2)nn1CCN(C)C` [Compound 183, N,N-dimethyl-2-[5-methyl-3-[4-morpholino-2-(4-phenylpyrazol-1-yl)furo[3,2-d]pyrimidin-6-yl]pyrazol-1-yl]ethanamine], the half-maximal inhibitory concentration (IC50) was 11.8 nM. For `COc1cccc(-c2cc(Nc3nc(N4CCOCC4)c4oc(-c5ccncc5)cc4n3)[nH]n2)c1` [Compound 24, N-[5-(3-methoxypheny1)-1H-pyrazol-3-yl]-4-morpholino-6-(4-pyridyl)furo[3,2-d]pyrimidin-2-amine, hydrogen chloride], the IC50 is 60 nM. Turning to `c1ccc(-c2cc(Nc3nc(N4CCOCC4)c4oc(CN5CCOCC5)cc4n3)[nH]n2)cc1` [Compound 12, 4-morpholino-6-(morpholinomethyl)-N-(3-phenyl-1H-pyrazol-5-yl)furo[3,2-d]pyrimidin-2-amine hydrochloride], the half-maximal inhibitory concentration (IC50) stood at 116 nM. Under `Cc1ncc(-c2cc3nc(-n4ccc(-c5ccccc5)n4)nc(N4CCOCC4)c3o2)[nH]1` [Compound 213, 6-(2-methyl-1H-imidazol-5-yl)-4-morpholino-2-(3-phenylpyrazol-1-yl)furo[3,2-d]pyrimidine] stands 10.6 nM; under `c1ccc(-c2ccn(-c3nc(N4CCOCC4)c4oc(-c5cn[nH]c5)cc4n3)n2)cc1` [Compound 209, 4-morpholino-2-(3-phenylpyrazol-1-yl)-6-(1H-pyrazol-4-yl)furo[3,2-d]pyrimidine], 9.8 nM.

For the molecule `Cc1cc(-c2cc3nc(-n4ccc(-c5ccccc5)n4)nc(N4CCOCC4)c3o2)on1` [Compound 206, 6-(3-methylisoxazol-5-yl)-4-morpholino-2-(3-phenylpyrazol-1-yl)furo[3,2-d]pyrimidine], the half-maximal inhibitory concentration (IC50) came to 7 nM. For `Cc1c(-c2cccnc2)oc2c(N3CCOCC3)nc(-n3ccc(-c4ccccc4)n3)nc12` [Compound 180, 7-methyl-4-morpholino-2-(3-phenylpyrazol-1-yl)-6-(3-pyridyl)furo[3,2-d]pyrimidine] the value was 55.6 nM; for `Cc1cccc(-c2ccn(-c3nc(N4CCOCC4)c4oc(-c5ccccn5)c(C)c4n3)n2)c1` [Compound 122, 7-methyl-4-morpholino-6-(pyridin-2-yl)-2-(3-(m-tolyl)-1H-pyrazol-1-yl)furo[3,2-d]pyrimidine], 12.7 nM; for `c1ccc(-n2cc(Nc3nc(N4CCOCC4)c4oc(-c5ccncc5)cc4n3)cn2)cc1` [Compound 49, 4-morpholino-N-(1-phenylpyrazol-4-yl)-6-(4-pyridyl)furo[3,2-d]pyrimidin-2-amine, hydrogen chloride], 21 nM.

On to `Cc1cccc(-c2cc(Nc3nc(N4CCOCC4)c4occc4n3)[nH]n2)c1` [Compound 8, 4-morpholino-N-[5-(m-tolyl)-1H-pyrazol-3-yl]furo[3,2-d]pyrimidin-2-amine, hydrogen chloride], for which the concentration for half-maximal inhibition (IC50) stood at 59.5 nM. Consider `CN1CCC(NC(=O)c2cc3nc(-n4ccc(-c5ccccc5)n4)nc(N4CCOCC4)c3o2)CC1` [Compound 151, N-(1-methyl-4-piperidyl)-4-morpholino-2-(3-phenylpyrazol-1-yl)furo[3,2-d]pyrimidine-6-carboxamide], for which the IC50 is 446 nM. Under `Cc1cccc(-c2ccn(-c3nc(N4CCOCC4)c4oc(C(=O)NS(C)(=O)=O)cc4n3)n2)c1` [Compound 98, N-(methylsulfonyl)-4-morpholino-2-(3-(m-tolyl)-1H-pyrazol-1-yl)furo[3,2-d]pyrimidine-6-carboxamide] stands 78.7 nM. For `c1ccc(-c2cnn(-c3nc(N4CCOCC4)c4oc(-c5cccnc5)cc4n3)c2)cc1` [Compound 160, 4-morpholino-2-(4-phenylpyrazol-1-yl)-6-(3-pyridyl)furo[3,2-d]pyrimidine] the value was 61.7 nM. Under `c1ccc(-c2cnn(-c3nc(N4CCOCC4)c4oc(-c5ccccn5)cc4n3)c2)cc1` [Compound 161, 4-morpholino-2-(4-phenylpyrazol-1-yl)-6-(2-pyridyl)furo[3,2-d]pyrimidine] stands 40.4 nM; under `c1ccc(-c2cc(Nc3nc(N4CCOCC4)c4oc(-c5ccncc5)cc4n3)[nH]n2)nc1` [Compound 19, 4-morpholino-6-(4-pyridyl)-N-[5-(2-pyridyl)-1H-pyrazol-3-yl]furo[3,2-d]pyrimidin-2-amine, hydrogen chloride], 64 nM. As to `O=C(O)c1cc2nc(Nc3cc(-c4ccccc4)[nH]n3)nc(N3CCOCC3)c2o1` [Compound 141, 4-morpholino-2-((5-phenyl-1H-pyrazol-3-yl)amino)furo[3,2-d]pyrimidine-6-carboxylic acid], the half-maximal inhibitory concentration (IC50) turned out to be 252 nM. Under `CNC(=O)c1cc2nc(Nc3cc(-c4ccsc4)n[nH]3)nc(N3CCOCC3)c2o1` [Compound 86, N-methyl-4-morpholino-2-((5-(thiophen-3-yl)-1H-pyrazol-3-yl)amino)furo[3,2-d]pyrimidine-6-carboxamide, hydrogen chloride] stands 61 nM.
